Reference: patent US4863748A, “Dietary products and uses comprising methylsulfonylmethane” (priority 1986, dated 1989)
Where two headings read alike, the source gives them in different places.

Key:
[1] = test system: intractable pain; assay: Pain in humans (Example 31); assay type: in vivo, human
Source text: The following patients suffering from intractable pain were given methylsulfonylmethane orally in the amounts and for the period of time set forth in the table below: […]

[2] = test system: epiphysitis; conditions: oral; cited from earlier work
[3] = Excretion of methylsulfonylmethane; assay type: in vivo
Source text: Orally ingested methylsulfonylmethane is stored to some degree in various organs, presumably banked for future sulfur needs of the body. The skin excretion route is unusual, particularly since about one-third of a given oral dose can be found in the perspiration. Like NaCl, excretion depends somewhat on perspiration rate. The accumulation in and excretion of methylsulfonylmethane from the skin is believed to account for its cosmetic effect, viz., more youthful appearing, pliable, blemish-reduced skin. Chemical and radiolabeled sulfur (35-S) assays can be used to determine the extent to which important biomolecules as heparin, insulin, co-enzyme A and other --SH bearing enzymes, biotin, methionine enkaphalin, human growth factor, hemoglobin, calcitonin, fibrinogen, muscle protein and other compounds derive their thiol (--S--) and disulfide (--S--S--) groups from methylsulfonylmethane and the possible preference of methylsulfonylmethane over S-content amino acids as the donor with such synthesis.

[4] = test system: scarification of the right cheek pouch; assay: Wound healing of the cheek pouch in hamsters (Example 17); assay type: in vivo; conditions: 0.1 gm/kg methylsulfonylmethane alone or 100 mg ascorbic acid alone in feed; controls day 4 and 5
Method: Four sets of 5 hamsters were subject to scarification of the right cheek pouch, using standard methodology. One week prior to pouch injury, one set was started on a daily regimen of 0.1 gm/kg of methylsulfonylmethane in the diet of standard hamster feed, a second group was given 0.1 gm/kg of methylsulfonylmethane plus 100 mg of ascorbic acid in the same feed, a third group was given only 100 mg of ascorbic acid in the same feed, and the last group, fed only the feed, was held as control. Daily post-scarification examination was made to determine the rate of injury repair.

[5] = test system: sharp pain spasms in the lower abdominal region; assay: Acute pain, comparison with codeine, subject one (Example 33); assay type: in vivo, human
Method: Codeine and methylsulfonylmethane were compared for the relief of pain in subject one, a person who had sharp pain spasms in the lower abdominal region. Subject's appendix had been removed. Pain began after suffering an accidental traumatic blow to the abdomen during a volley ball game. Pyelogram examination indicated no obstruction. […] Codeine (2) plus 1/4 grain with aspirin every 4 hours, provided some relief. The codeine/aspirin was discontinued and 1 g methylsulfonylmethane in warm water was given. A half-hour later all discomfort ceased. A second gram of methylsulfonylmethane in water was given 4 hours later, after which the subject continued pain free.

[6] = test system: Giardia lamblia; assay: In vitro inhibition of Giardia lamblia (Example 28(b)); assay type: cell-based
Method: However, at 20 mg/ml concentration, it was strongly inhibitory and concentrations above 40 mg/ml promptly killed the organism.

[7] = test system: gum inflammation and oral mucosa; assay: Oral hygiene (Example 11); assay type: in vivo, human
[8] = Tolerance and toxicity on ingestion; assay type: in vivo, animals; conditions: for NOAEL: in vivo, po
Source text: The methylsulfonylmethane is usually provided in the aninmal's normal feed rations, periodically throughout the day or on successive days, or both, e.g., for 2 to 21 days or even longer. The daily food ration appropriate for the animal being fed is supplemented with an amount of methylsulfonylmethane calculated to correspond to a predetermined amount per total body weight of the animals being fed. The exact amount of methylsulfonylmethane ingested each day is not always critical, particularly when methylsulfonylmethane administration is over an extended period of days, because the ingested methylsulfonylmethane accumulates in the body tissues and fluids, i.e., reaches an effective titer. Methylsulfonylmethane-supplemented rations providing levels of as low as 0.5-1 mg/kg animal body weight are sometimes effective and levels as high as 300 mg/kg body weight or more are well tolerated. The usual target level per individual animal is about 0.2-2.0 mg/kg body weight preferably 0.5-1.0 mg per kg body weight. Total daily supplements corresponding to up to about 1 gm/kg body weight or more, are preferably employed, depending on the degree of deficiency. Healthy animals often have methylsulfonylmethane blood levels of at least 1 ppm, and desirably, enough methylsulfonylmethane is provided to raise blood levels to above 1 ppm. The oral ingestion of amounts of methylsulfonylmethane in excess of that required to elevate blood levels is not harmful because of the extremely non-toxic nature of methylsulfonylmethane.
One can safely administer 1-2 grams/kg body wt. of methylsulfonylmethane on a daily basis (equal to 1000-2000 ppm w/w basis). One therefore builds a safely tolerated blood level of about 4000 ppm, which level is highly toxic to many infective organism yet is harmless to the host. Methylsulfonylmethane provides a unique new therapeutic approach, used alone or with concurrent, conventional therapy.

[9] = test system: coat; assay: Coat quality of guinea pigs (Example 8); assay type: in vivo; conditions: 2 wt. % in water, 28 days
Source text: Ten 4-week old guinea pigs were housed in individual metal cages in a standard temperature room with a 12-hour light/dark cycle and acclimated over a 5-day period of feeding Purina guinea pig chow with water ad lib.
On day six, five animals were marked on the belly with red and the other five with blue water-insoluble ink. The marks were not visible when the animals were observed from above. Each animal after marking was returned to its cage and a corresponding red or blue tape affixed to the animal's watering bottle. The red marked bottles were maintained with tap water and the blue marked bottles were filled with tap water containing 2 wt. % methylsulfonylmethane. During a 28 day period, the animals were fed and allowed access to their water or water+2% methylsulfonylmethane, respectively, ad lib. On day 28, the animals were placed in common confinement on a well lighted table. Four individuals, totally unfamiliar with the test and its purpose were asked to evaluate the coat of each animal. Animals at each evaluation were removed by the evaluator and placed into one of two groups based on better or poorer quality of the animal's coat without seeing the color on the animal's belly.

[10] = test system: Enterobius (pin worms); assay: Pin worm (Enterobius) infection in laboratory mice (Examples 19 and 28(c)); assay type: in vivo; conditions: 2% by wt. in feed and drinking water
Source text: Laboratory mice determined by fecal cast examination to have pin worms were given commercial feed and drinking water, ad lib, both of which contained 2% by wt. methylsulfonylmethane. […] The blood level of methylsulfonylmethane in one animal examined exceeded 30 ppm.
Laboratory mice determined by fecal cast examination to have pin worms were given 2% by wt. of methylsulfonylmethane in both their commercial feed and drinking water, ad lib.

CS(C)(=O)=O [methylsulfonylmethane]
Results ([1]; A. B., 69 F, Deg. Arth., 0.5 bid × 18 months): pain relief | Results ([1]; B. A., 63 F, Deg. Arth., 0.25 g qid): pain relief | Results: pain relief ([1]; C. A., 62 M, Bursitis Chronic, 0.25 g bid × 3 months): 50% | Results ([1]; D. B., 35 M, Low back pain, 0.5 g qid × 9 months): pain relief | Results: muscle pain ([1]; I. B., 62 F, Multiple Sclerosis, 0.5 bid × 18 months): reduction | Results ([1]; M. A., 55 F, Rh. Arth., 0.25 g bid × 9 months): pain relief | Results ([1]; N. B., 62 M, Tendonitis, 0.25 g qid): reduced pain | Results ([1]; P. A., 61 F, Deg. Arth., 1 g 4×/day × 19 months): pain relief | correction of epiphysitis [2]: rapidly corrected | rate of excretion ([3]; i.v. administration): very rapidly excreted | excretion of excess amounts (feces, renal pathway, skin) ([3]; in vivo): excreted unchanged | portion of a given oral dose found in the perspiration ([3]; oral): about one-third | day on which the 36-hour combination healing result was matched [4]: three | time until all discomfort ceased ([5]; 1 g in warm water, oral): A half-hour | pain after second gram ([5]; second gram 4 hours later): pain free | concentration promptly killing the organism [6]: above 40 mg/ml | concentration with no significant inhibition [6]: ≤ 1 mg/mL | strongly inhibitory concentration [6]: 20 mg/mL | sense of taste ([7]; critical observers): improved | sense of smell ([7]; gargle, two subjects with restricted sense of smell): sharpening of this sense | bad breath associated with smoking or food ([7]; in water, saline solution or oral hygiene product): reduced or eliminated | viscosity of the mucous ([7]; subjects with viscid mucoid nasopharyngeal discharge): reduction in the viscosity of the mucous | acute and chronic toxicity ([8]; in the host's diet): remarkably low | NOAEL ([8]; daily basis, read-out: safely administered daily dose): 1000 to 2000 mg/kg/day | NOAEL ([8]; supplemented rations, or more, read-out: well tolerated level in rations): ≥ 300 mg/kg | toxicity at high (greater than 1 gm/kg body wt.) blood levels ([8]; primates, at least two years): lack evidence of methylsulfonylmethane toxicity | animals with blue belly mark selected as superior by fourth evaluator [9]: three | evaluators selecting the five treated animals as having superior coats [9]: Three of the four evaluators | worms and eggs in fecal cast after 17 days [10]: free of worms and eggs
